Measured values taken from patent US6509379B1, “Phenylacetic acid derivatives, process and intermediate products for their preparation, and their use as fungicides and pesticides” (BASF Aktiengesellschaft, priority 1995, dated 2003).

Tests used:
[1] = test system: powdery mildew of wheat (Erysiphe graminis var. tritici); assay: Efficacy against powdery mildew of wheat (protective spray on potted wheat seedlings); format: in vivo; settings: wheat seedlings cv. Frühgold, sprayed 24 hours before dusting with oidia, evaluated after 7 days, untreated 70
Protocol: (§1) The active ingredients are formulated as a 20% strength emulsion in a mixture of 70% by weight of cyclohexanone, 20% by weight of Nekanil® LN (Lutensol® AP6, wetting agent having emulsifier and dispersing action based on ethoxylated alkylphenols) and 10% by weight of Emulphor® EL (Emulan® EL, emulsifier based on ethoxylated fatty alcohols) and diluted with water to give the desired concentration. The experiments were evaluated visually.
Leaves of wheat seedlings cv. “Frühgold” in pots were sprayed with aqueous spray mixture comprising 80% of active ingredient of Table 1 and 20% of emulsifier in the dry matter and, 24 hours after the spray coating had dried on, dusted with oidia (spores) of powdery mildew of wheat (Erysiphe graminis var. tritici). The test plants were subsequently placed in a greenhouse at from 20 to 22° C. and a relative atmospheric humidity of 75 to 80%. After 7 days, the extent of mildew development was determined.

[2] = test system: leaf rust of wheat (Puccinia recondite); assay: Efficacy against leaf rust of wheat (spray after infection of potted wheat seedlings); format: in vivo; settings: wheat seedlings cv. Kanzler, sprayed 24 hours after dusting with spores, evaluated after 8 days, untreated 70
Protocol: as §1
Leaves of wheat seedlings cv. “Kanzler” in pots were dusted with leaf rust spores (Puccinia recondite). The pots were then placed for 24 hours in a chamber with high atmospheric humidity (90 to 95%) at from 20 to 22° C. During this time, the spores germinated, and the germ tubes penetrated the leaf tissue. The infected plants were subsequently sprayed to runoff point with aqueous spray mixtures comprising 80% of active ingredient of Table 1 and 20% of emulsifier in the dry matter. After the spray coating had dried on, the test plants were placed in a greenhouse at from 20 to 22° C. and a relative atmospheric humidity of 65 to 70%. After 8 days, the extent of rust development on the leaves was determined.

Compound | % infection of the leaves after application of an aqueous preparation comprising 250 ppm of active ingredient [1] | % infection of the leaves after application of an aqueous preparation comprising . . . ppm of active ingredient ([2]; 63 ppm) | % infection of the leaves after application of an aqueous preparation comprising . . . ppm of active ingredient ([2]; 16 ppm) | melting point
CCC(=O)N(C)c1ccc(C(=NOC)C(C)=NOCc2ccccc2C(=COC)C(=O)OC)cc1 [I.17] | 15% |  |  | 
CC=C(C(=O)OC)c1ccccc1CON=C(C)C(=NOC)c1ccc(N(C)C(=O)CC)cc1 [I.21] | 5% |  |  | 
CCC(=O)Nc1ccc(C(=NOC)C(C)=NOCc2ccccc2C(=COC)C(=O)OC)cc1 [I.16] | 5% |  |  | 
CC=C(C(=O)OC)c1ccccc1CON=C(C)C(=NOC)c1ccc(NC(=O)C(C)(C)C)cc1 [I.43] | 15% | 5% |  | 
C#CCON=C(C(C)=NOCc1ccccc1C(=COC)C(=O)OC)c1ccc(C(C)=NOCC)cc1 [I.56] |  | 15% |  | 
CCCN(C(=O)C(C)(C)C)c1ccc(C(=NOC)C(C)=NOCc2ccccc2C(=NOC)C(=O)NC)cc1 [I.32] | 15% |  | 0% | 
CCC(=O)N(C)c1ccc(C(=NOC)C(C)=NOCc2ccccc2C(=NOC)C(=O)NC)cc1 [I.5] | 5% | 0% |  | 
CC=C(C(=O)OC)c1ccccc1CON=C(C)C(=NOC)c1ccc(N(CC)C(=O)C(C)(C)C)cc1 [I.45] | 15% | 15% |  | 
CCON=C(C)c1ccc(C(=NOC)C(C)=NOCc2ccccc2C(=NOC)C(=O)NC)cc1 [I.55] | 15% |  | 0% | 
CNC(=O)/C(=N/OC)c1ccccc1CO/N=C(C)/C(=N/OC)c1ccc(/C(C)=N/OC)cc1 [I.52] | 15% |  | 0% | 
CNC(=O)C(=NOC)c1ccccc1CON=C(C)C(=NOC)c1ccc(C=NOC)cc1 [I.54] | 5% |  | 0% | 
CC=C(C(=O)OC)c1ccccc1CON=C(C)C(=NOC)c1ccc(C=NOC)cc1 [I.58] | 0% | 0% |  | 
CO/N=C(\C)c1ccc(C(=N\OC)/C(C)=N/OCc2ccccc2/C(=N\OC)C(=O)OC)cc1 [I.51] |  |  |  | 112 to 114 °C
CC=C(C(=O)OC)c1ccccc1CON=C(C)C(=NOC)c1ccc(N(C)C(C)=O)cc1 [I.40] | 15% | 0% |  | 
CON=Cc1ccc(C(=NOC)C(C)=NOCc2ccccc2C(=NOC)C(=O)OC)cc1 [I.53] | 15% |  |  | 
CO/N=C(/C(C)=N/OCc1ccccc1/C(=N\OC)C(=O)OC)c1ccc(N(C)C(=O)C(C)(C)C)cc1 [I.12] | 5% | 15% |  | 111 to 113 °C
CO/N=C(/C(C)=N/OCc1ccccc1/C(=N\OC)C(=O)OC)c1ccc(NC(=O)C(C)(C)C)cc1 [I.11] |  |  |  | 114 to 116 °C
CC=C(C(=O)OC)c1ccccc1CON=C(C)C(=NOC)c1ccc(N(CC)C(=O)CC)cc1 [I.22] | 15% |  |  | 

Compound | % infection of the leaves after application of an aqueous preparation comprising 250 ppm of active ingredient [1] | % infection of the leaves after application of an aqueous preparation comprising . . . ppm of active ingredient ([2]; 63 ppm) | % infection of the leaves after application of an aqueous preparation comprising . . . ppm of active ingredient ([2]; 16 ppm) | melting point
CC=C(C(=O)OC)c1ccccc1CON=C(C)C(=NOC)c1ccc(N(CCC)C(=O)CC)cc1 [I.23] | 15% |  |  | 
CC=C(C(=O)OC)c1ccccc1CON=C(C)C(=NOC)c1ccc(N(C)C(=O)C(C)(C)C)cc1 [I.44] |  | 5% |  | 
CC=C(C(=O)OC)c1ccccc1CON=C(C)C(=NOC)c1ccc(NC(=O)CC)cc1 [I.20] | 15% |  |  | 
CNC(=O)C(=NOC)c1ccccc1CON=C(C)C(=NOC)c1ccc(N(OC)C(=O)OC)cc1 [I.25] | 5% |  |  | 
CCN(C(=O)C(C)(C)C)c1ccc(C(=NOC)C(C)=NOCc2ccccc2C(=NOC)C(=O)NC)cc1 [I.26] | 15% |  |  | 
CNC(=O)C(=NOC)c1ccccc1CON=C(C)C(=NOC)c1ccc(N(C)C(C)=O)cc1 [I.29] |  |  | 5% | 
C#CCON=C(C(C)=NOCc1ccccc1C(=COC)C(=O)OC)c1ccc(C(C)=NOC)cc1 [I.57] | 0% | 15% |  | 
CCN(C(C)=O)c1ccc(C(=NOC)C(C)=NOCc2ccccc2C(=NOC)C(=O)NC)cc1 [I.30] |  |  | 15% | 
CC=C(C(=O)OC)c1ccccc1CON=C(C)C(=NOC)c1ccc(N(CC)C(C)=O)cc1 [I.41] | 15% | 15% |  | 
CCC(=O)N(CC)c1ccc(C(=NOC)C(C)=NOCc2ccccc2C(=COC)C(=O)OC)cc1 [I.18] | 5% |  |  | 
CCCN(C(=O)CC)c1ccc(C(=NOC)C(C)=NOCc2ccccc2C(=COC)C(=O)OC)cc1 [I.19] | 5% |  |  | 
CCC(=O)N(CC)c1ccc(C(=NOC)C(C)=NOCc2ccccc2C(=NOC)C(=O)NC)cc1 [I.8] | 0% | 0% |  | 
CCCN(C(C)=O)c1ccc(C(=NOC)C(C)=NOCc2ccccc2C(=NOC)C(=O)NC)cc1 [I.31] | 15% |  | 0% | 
COC=C(C(=O)OC)c1ccccc1CON=C(C)C(=NOC)c1ccc(C=NOC)cc1 [I.59] | 0% | 10% |  | 
CNC(=O)/C(=N/OC)c1ccccc1CO/N=C(C)/C(=N/OC)c1ccc(N(C)C(=O)C(C)(C)C)cc1 [I.10] |  |  |  | 168 to 170 °C
CCCN(C(=O)CC)c1ccc(C(=NOC)C(C)=NOCc2ccccc2C(=NOC)C(=O)NC)cc1 [I.15] | 5% |  |  | 
CCCCN(C(=O)C(C)(C)C)c1ccc(C(=NOC)C(C)=NOCc2ccccc2C(=NOC)C(=O)NC)cc1 [I.27] | 5% |  | 3% | 
COC=C(C(=O)OC)c1ccccc1CON=C(C)C(=NOC)c1ccc(NC(=O)C(C)(C)C)cc1 [I.13] | 0% | 15% | 5% | 
